Measured values published in patent US20030162824A1, “Methods of treating or preventing a cardiovascular condition using a cyclooxygenase-1 inhibitor” (priority 2001, published 2003).
Several values for one entry are separate records, joined by “and”; a condition that tells them apart may be missing. Identical values can stand only once.

What was measured:
[1] = tested on: apoE knockout mice fed a 1% cholesterol diet; experiment: Effect of cyclooxygenase inhibition on the development of atherosclerosis in cholesterol-fed apoE knockout mice; details: for extent of lesion development: aortae after 10 weeks, vehicle 25.8±4.5%
Protocol: The role of cyclooxygenase-1 and cyclooxygenase-2 on the development of atherosclerosis in apoE knockout mice fed a 1% cholesterol diet was evaluated. […] ApoE^−/− fed a normal chow (n=20) and wildtype littermates (n=40) were used as controls for the study. Twenty-four hour urine samples were collected and the aortae harvested following 10 weeks of treatment.

[2] = molecular target: T1, hCox-2 (Homo sapiens, UniProt P35354); experiment: Evaluation of COX-2 activity in vitro (recombinant enzyme, PGE2 ELISA); format: biochemical
T1 construct: A 2.0 kb fragment containing the coding region of either human or murine COX-1 or human or murine COX-2; made in house; host or cells: SF9 insect cells (baculovirus, pVL1393)
T1 sequence (P35354 18-604): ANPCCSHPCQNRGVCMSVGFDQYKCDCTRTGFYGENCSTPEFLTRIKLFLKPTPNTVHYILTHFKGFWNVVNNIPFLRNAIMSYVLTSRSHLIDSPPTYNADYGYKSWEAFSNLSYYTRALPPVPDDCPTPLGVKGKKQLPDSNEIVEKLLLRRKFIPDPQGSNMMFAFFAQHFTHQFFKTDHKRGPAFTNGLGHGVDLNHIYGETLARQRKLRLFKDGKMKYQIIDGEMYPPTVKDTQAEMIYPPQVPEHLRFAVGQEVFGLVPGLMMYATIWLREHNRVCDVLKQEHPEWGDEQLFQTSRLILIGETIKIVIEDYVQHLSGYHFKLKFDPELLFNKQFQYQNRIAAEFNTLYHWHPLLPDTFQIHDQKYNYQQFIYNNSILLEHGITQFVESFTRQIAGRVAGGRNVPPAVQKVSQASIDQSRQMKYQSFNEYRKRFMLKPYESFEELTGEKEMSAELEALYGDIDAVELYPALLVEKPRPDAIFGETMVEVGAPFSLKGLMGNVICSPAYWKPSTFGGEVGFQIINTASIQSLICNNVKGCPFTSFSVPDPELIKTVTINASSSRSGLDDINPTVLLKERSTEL
Protocol: (§1) Recombinant baculoviruses were isolated by transfecting 4 μg of baculovirus transfer vector DNA into SF9 insect cells (2×10^8) along with 200 ng of linearized baculovirus plasmid DNA by the calcium phosphate method.
(§2) Recombinant viruses were purified by three rounds of plaque purification and high titer (10^7-10^8 pfu/mL) stocks of virus were prepared. For large scale production, SF9 insect cells were infected in 10 liter fermentors (0.5×10^6/mL) with the recombinant baculovirus stock such that the multiplicity of infection was 0.1. […] The homogenate was centrifuged at 10,000×G for 30 minutes, and the resultant supernatant was stored at −80° C. before being assayed for COX activity.
(§3) COX activity was assayed as PGE2 formed/μg protein/time using an ELISA to detect the prostaglandin released. CHAPS-solubilized insect cell membranes containing the appropriate COX enzyme were incubated in a potassium phosphate buffer (50 mM, pH 8.0) containing epinephrine, phenol, and heme with the addition of arachidonic acid (10 μM). Compounds were pre-incubated with the enzyme for 10-20 minutes prior to the addition of arachidonic acid. […] The PGE2 formed was measured by standard ELISA technology (Cayman Chemical).

[3] = molecular target: T2, hCox-1 (Homo sapiens, UniProt P23219); experiment: Evaluation of COX-1 activity in vitro (recombinant enzyme, PGE2 ELISA); format: biochemical
T2 construct: A 2.0 kb fragment containing the coding region of either human or murine COX-1 or human or murine COX-2; made in house; host or cells: SF9 insect cells (baculovirus, pVL1393)
Protocol: as §1, §2, §3

[4] = 10 weeks, COX-1 inhibitor 15 mg/kg daily, COX-2 inhibitor 6 mg/kg
[5] = COX-1 inhibitor 15 mg/kg daily, COX-2 inhibitor 6 mg/kg

T2 sequence (P23219 24-599): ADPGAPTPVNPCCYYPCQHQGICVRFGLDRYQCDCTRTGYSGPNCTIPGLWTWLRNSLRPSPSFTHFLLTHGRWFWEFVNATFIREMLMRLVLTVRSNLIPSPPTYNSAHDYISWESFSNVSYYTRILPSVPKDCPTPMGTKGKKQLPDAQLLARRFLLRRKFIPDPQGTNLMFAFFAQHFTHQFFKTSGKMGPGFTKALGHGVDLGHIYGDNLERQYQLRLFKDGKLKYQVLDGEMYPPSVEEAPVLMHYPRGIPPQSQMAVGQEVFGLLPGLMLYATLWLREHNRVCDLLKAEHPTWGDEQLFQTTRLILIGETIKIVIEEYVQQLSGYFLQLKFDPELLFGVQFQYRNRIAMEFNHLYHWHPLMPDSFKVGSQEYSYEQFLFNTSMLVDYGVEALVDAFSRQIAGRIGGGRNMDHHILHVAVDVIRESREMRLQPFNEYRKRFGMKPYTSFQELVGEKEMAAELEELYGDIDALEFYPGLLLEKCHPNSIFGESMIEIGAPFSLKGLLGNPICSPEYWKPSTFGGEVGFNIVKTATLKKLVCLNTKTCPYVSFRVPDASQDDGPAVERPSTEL

IC50 [2] [µM] | IC50 [3] | SMILES | also measured
– | – | COc1ccc(-n2nc(C(F)(F)F)cc2-c2ccc(Cl)cc2)cc1 | CD41 staining of lesions (platelet deposition) [1, 4]: markedly attenuated
– | – | COc1ccc(-n2nc(C(F)(F)F)cc2-c2ccc(Cl)cc2)cc1 [Compound 1] | Urinary TXB2 excretion ([1]; 24 h urine after 10 weeks of treatment, COX-1 inhibitor 15 mg/kg daily, vehicle 20.7±4.02): 2.63 ± 0.59 ng/mL; extent of lesion development [1, 5]: 4.6±0.4%
> 100 | < 0.137 µM and 0.021 µM | COc1ccc(-n2nc(C(F)F)cc2-c2ccc(Cl)cc2)cc1 [Compound 2, 5-(4-chlorophenyl)-3-(difluoromethyl)-1-(4-methoxyphenyl)pyrazole] | –
> 100 | 0.284 µM | COC(=O)c1cc(-c2ccc(Cl)cc2)n(-c2ccc(OC)cc2)n1 [Compound 3, 5-(4-chlorophenyl)-3-(methoxycarbonyl)-1-(4-methoxyphenyl)pyrazole] | –
> 100 | 55.7 µM | COc1ccc(-n2nc(C(=O)O)cc2-c2ccc(Cl)cc2)cc1 [Compound 4, 3-carboxy-5-(4-chlorophenyl)-1-(4-methoxyphenyl)pyrazole] | –
> 1000 | 0.085 µM | FC(F)(F)c1cc(-c2ccccc2)n(-c2ccc(Cl)cc2)n1 [Compound 7, 1-(4-chlorophenyl)-5-phenyl-3-(trifluoromethyl)pyrazole] | –
> 1000 | 0.123 µM | FC(F)(F)c1cc(-c2ccc(Cl)cc2)n(-c2ccccc2)n1 [Compound 9, 5-(4-chlorophenyl)-1-phenyl-3-(trifluoromethyl)pyrazole] | –
> 500 | 0.435 µM | FC(F)(F)c1cc(-c2ccc(Br)cc2)n(-c2ccccc2)n1 [Compound 12, 5-(4-bromophenyl)-1-phenyl-3-(trifluoromethyl)pyrazole] | –
> 100 | 3.3 µM | FC(F)(F)c1cc(-c2cccc(Br)c2)n(-c2ccccc2)n1 [Compound 13] | –
> 100 | 0.65 µM | FC(F)(F)c1cc(-c2ccc(I)cc2)n(-c2ccccc2)n1 [Compound 15, 5-(4-iodophenyl)-1-phenyl-3-(trifluoromethyl)pyrazole] | –
0.424 | < 0.137 µM | Cc1ccc(-c2cc(C(F)(F)F)nn2-c2ccc(Br)cc2)cc1 [Compound 16, 1-(4-bromophenyl)-5-(4-methylphenyl)-3-(trifluoromethyl)pyrazole] | –
> 100 | 0.442 µM | COC(=O)c1nn(-c2ccc(OC)cc2)c2c1CCc1cc(OC)ccc1-2 [Compound 18] | –
> 100 | 0.126 µM | COc1ccc(-n2nc(C(F)F)cc2-c2ccc(SC)cc2)cc1 [Compound 19] | –
> 1000 | 0.027 µM | COc1ccc(-n2nc(CCC(=O)N(C)O)cc2-c2ccc(Cl)cc2)cc1 [Compound 20] | –
22.8 | 0.647 µM | O=[N+]([O-])c1ccc(-c2cc(C(F)F)nn2-c2ccc(F)cc2)cc1 [Compound 21] | –
> 100 | 0.81 µM | O=[N+]([O-])c1ccc(-n2nc(C(F)(F)F)cc2-c2ccc(Cl)cc2)cc1 [Compound 22] | –
> 100 | 0.676 µM | O=[N+]([O-])c1ccc(-n2nc(C(F)F)cc2-c2ccc(Cl)cc2)cc1 [Compound 23] | –
– | ≤ 0.137 µM | NS(=O)(=O)c1ccc(-n2nc(C(=O)O)cc2-c2ccccc2)cc1 [Compound 24] | –
> 100 | 0.31 µM | COC(=O)c1ccc(-n2nc(C(F)(F)F)cc2-c2ccc(C)cc2)cc1 [Compound 26] | –
> 100 | 0.141 µM | COc1ccc2c(c1)CSc1c(C(F)(F)F)nn(-c3ccc(Cl)cc3)c1-2 [Compound 27] | –
23 | 0.643 µM | COc1ccc(-c2cc(C(F)F)nn2-c2ccc(Cl)cc2)cc1F [Compound 28] | –
– | 0.242 µM | COc1ccc(-n2nc(CO[N+](=O)[O-])cc2-c2ccc(Cl)cc2)cc1 [Compound 29] | –
> 100 | 0.108 µM | Cc1ccc(-c2cc(C(F)(F)F)nn2-c2ccc(C(F)(F)F)cc2)cc1 [Compound 30] | –
67.1 | 0.287 µM | COc1ccc(-c2cc(C(F)(F)F)nn2-c2ccc(C)cc2)cc1C [Compound 31] | –
≥ 1000 | 0.012 µM | COc1ccc(-n2nc(C(=O)Nc3ccc(N=[N+]=[N-])cc3)cc2-c2ccc(Cl)cc2)cc1 [Compound 32] | –
– | – | NS(=O)(=O)c1ccc(-n2nc(C(F)(F)F)cc2-c2ccc(Cl)cc2)cc1 [selective COX-2 inhibitor, 4-[5-(4-chlorophenyl)-3-(trifluoromethyl)-1H-pyrazol-1-yl]benzenesulfonamide, reference compound] | CD41 staining of lesions (platelet deposition) [1, 4]: no effect; effect on TXB2 excretion (in words) ([1]; 10 weeks, COX-2 inhibitor 6 mg/kg): no effect; extent of lesion development [1, 5]: 27.9±1.8%
